Source: patent publication US20060247129A1, “Surfactant compounds and agrochemical compositions” (Imperial Chemical Industries PLC, priority 2003, published 2006)

Legend:
Test in all cases: glasshouse herbicide spray test, % weed control, adjuvant with glyphosate potassium salt
Type in all cases: in vivo
Conditions in all cases: 19 days after treatment
[1] = test system: Solanum nigra
Experimental: (§1) The compound of Synthesis Example SE1 was tested as an adjuvant with glyphosate potassium salt, mixing the glyphosate and adjuvant in a tank mix using concentrations of glyphosate from 0.125 to 2 g.l-1 and of adjuvant from 0.003125 to 0.2% v/v. The tank mixes were sprayed as a herbicide on a variety of test species at an application rate of 200 l.ha^−1 to give application rates of glyphosate of from 25 to 400 g (active ingredient).ha^−1. The plants were grown in a warm glasshouse and assessed 19 days after treatment for % control—the mean of three replicates for visually assessed % weed control, relative to unsprayed plants of each species in the same test.
(§2) Example AE1 was repeated but using the compound made in Synthesis Example SE4 as the adjuvant.

[2] = test system: Sorghum halepense
Experimental: as §1, §2

[3] = test system: Abutilon Theophrasti
Experimental: as §1, §2

[4] = test system: Sida Spinosa
Experimental: as §1, §2

[5] = test system: Echinochloa crus-galli
Experimental: as §1, §2

[6] = test system: Portulaca oleracea
Experimental: as §1, §2

[7] = glyphosate 50 g ai/ha, adjuvant 0.003125 % v/v
[8] = glyphosate 50 g ai/ha, adjuvant 0.0125 % v/v
[9] = glyphosate 50 g ai/ha, adjuvant 0.05 % v/v
[10] = glyphosate 50 g ai/ha, adjuvant 0.2 % v/v
[11] = glyphosate 100 g ai/ha, adjuvant 0.003125 % v/v
[12] = glyphosate 100 g ai/ha, adjuvant 0.0125 % v/v
[13] = glyphosate 100 g ai/ha, adjuvant 0.05 % v/v
[14] = glyphosate 100 g ai/ha, adjuvant 0.2 % v/v
[15] = glyphosate 200 g ai/ha, adjuvant 0.003125 % v/v
[16] = glyphosate 200 g ai/ha, adjuvant 0.0125 % v/v
[17] = glyphosate 200 g ai/ha, adjuvant 0.05 % v/v
[18] = glyphosate 200 g ai/ha, adjuvant 0.2 % v/v
[19] = glyphosate 400 g ai/ha, adjuvant 0.003125 % v/v
[20] = glyphosate 400 g ai/ha, adjuvant 0.0125 % v/v
[21] = glyphosate 400 g ai/ha, adjuvant 0.05 % v/v
[22] = glyphosate 400 g ai/ha, adjuvant 0.2 % v/v
[23] = glyphosate 25 g ai/ha, adjuvant 0.003125 % v/v
[24] = glyphosate 25 g ai/ha, adjuvant 0.0125 % v/v
[25] = glyphosate 25 g ai/ha, adjuvant 0.05 % v/v
[26] = glyphosate 25 g ai/ha, adjuvant 0.2 % v/v

Random 8-ethoxylate-2-propoxylate of N-methyl glucamine C8/C10 glycidyl ether [SE1]
% control SOLNI [1, 7]: 37%
% control SOLNI [1, 8]: 35%
% control SOLNI [1, 9]: 48%
% control SOLNI [1, 10]: 50%
% control SOLNI [1, 11]: 62%
% control SOLNI [1, 12]: 68%
% control SOLNI [1, 13]: 68%
% control SOLNI [1, 14]: 77%
% control SOLNI [1, 15]: 80%
% control SOLNI [1, 16]: 81%
% control SOLNI [1, 17]: 81%
% control SOLNI [1, 18]: 79%
% control SOLNI [1, 19]: 80%
% control SOLNI [1, 20]: 81%
% control SOLNI [1, 21]: 79%
% control SOLNI [1, 22]: 82%
% control SORHA [2, 23]: 17%
% control SORHA [2, 24]: 7%
% control SORHA [2, 25]: 8%
% control SORHA [2, 26]: 45%
% control SORHA [2, 7]: 40%
% control SORHA [2, 8]: 22%
% control SORHA [2, 9]: 20%
% control SORHA [2, 10]: 84%
% control SORHA [2, 11]: 90%
% control SORHA [2, 12]: 81%
% control SORHA [2, 13]: 72%
% control SORHA [2, 14]: 92%
% control SORHA [2, 15]: 93%
% control SORHA [2, 16]: 91%
% control SORHA [2, 17]: 91%
% control SORHA [2, 18]: 96%
% control ABUTH [3, 7]: 33%
% control ABUTH [3, 8]: 33%
% control ABUTH [3, 9]: 38%
% control ABUTH [3, 10]: 27%
% control ABUTH [3, 11]: 53%
% control ABUTH [3, 12]: 35%
% control ABUTH [3, 13]: 43%
% control ABUTH [3, 14]: 42%
% control ABUTH [3, 15]: 62%
% control ABUTH [3, 16]: 66%
% control ABUTH [3, 17]: 66%
% control ABUTH [3, 18]: 70%
% control ABUTH [3, 19]: 81%
% control ABUTH [3, 20]: 82%
% control ABUTH [3, 21]: 79%
% control ABUTH [3, 22]: 83%
% control SIDSP [4, 7]: 30%
% control SIDSP [4, 8]: 38%
% control SIDSP [4, 9]: 42%
% control SIDSP [4, 10]: 31%
% control SIDSP [4, 11]: 33%
% control SIDSP [4, 12]: 48%
% control SIDSP [4, 13]: 48%
% control SIDSP [4, 14]: 55%
% control SIDSP [4, 15]: 63%
% control SIDSP [4, 16]: 48%
% control SIDSP [4, 17]: 72%
% control SIDSP [4, 18]: 79%
% control SIDSP [4, 19]: 79%
% control SIDSP [4, 20]: 73%
% control SIDSP [4, 21]: 83%
% control SIDSP [4, 22]: 78%
% control ECHCG [5, 23]: 15%
% control ECHCG [5, 24]: 10%
% control ECHCG [5, 25]: 22%
% control ECHCG [5, 26]: 37%
% control ECHCG [5, 7]: 48%
% control ECHCG [5, 8]: 47%
% control ECHCG [5, 9]: 58%
% control ECHCG [5, 10]: 70%
% control ECHCG [5, 11]: 85%
% control ECHCG [5, 12]: 82%
% control ECHCG [5, 13]: 84%
% control ECHCG [5, 14]: 89%
% control ECHCG [5, 15]: 92%
% control ECHCG [5, 16]: 90%
% control ECHCG [5, 17]: 93%
% control ECHCG [5, 18]: 97%
% control POROC [6, 7]: 7%
% control POROC [6, 8]: 4%
% control POROC [6, 9]: 12%
% control POROC [6, 10]: 30%
% control POROC [6, 11]: 8%
% control POROC [6, 12]: 9%
% control POROC [6, 13]: 18%
% control POROC [6, 14]: 37%
% control POROC [6, 15]: 23%
% control POROC [6, 16]: 20%
% control POROC [6, 17]: 45%
% control POROC [6, 18]: 64%
% control POROC [6, 19]: 42%
% control POROC [6, 20]: 43%
% control POROC [6, 21]: 60%
% control POROC [6, 22]: 73%

Random 8-ethoxylate-2-propoxylate of N-methyl glucamine C13/C15 glycidyl ether [SE4]
% control SOLNI [1, 7]: 37%
% control SOLNI [1, 8]: 32%
% control SOLNI [1, 9]: 63%
% control SOLNI [1, 10]: 73%
% control SOLNI [1, 11]: 65%
% control SOLNI [1, 12]: 68%
% control SOLNI [1, 13]: 71%
% control SOLNI [1, 14]: 78%
% control SOLNI [1, 15]: 78%
% control SOLNI [1, 16]: 73%
% control SOLNI [1, 17]: 80%
% control SOLNI [1, 18]: 82%
% control SOLNI [1, 19]: 83%
% control SOLNI [1, 20]: 83%
% control SOLNI [1, 21]: 84%
% control SOLNI [1, 22]: 85%
% control SORHA [2, 23]: 8%
% control SORHA [2, 24]: 8%
% control SORHA [2, 25]: 32%
% control SORHA [2, 26]: 84%
% control SORHA [2, 7]: 23%
% control SORHA [2, 8]: 20%
% control SORHA [2, 9]: 68%
% control SORHA [2, 10]: 89%
% control SORHA [2, 11]: 78%
% control SORHA [2, 12]: 70%
% control SORHA [2, 13]: 90%
% control SORHA [2, 14]: 95%
% control SORHA [2, 15]: 87%
% control SORHA [2, 16]: 89%
% control SORHA [2, 17]: 96%
% control SORHA [2, 18]: 95%
% control ABUTH [3, 7]: 40%
% control ABUTH [3, 8]: 48%
% control ABUTH [3, 9]: 25%
% control ABUTH [3, 10]: 43%
% control ABUTH [3, 11]: 42%
% control ABUTH [3, 12]: 33%
% control ABUTH [3, 13]: 50%
% control ABUTH [3, 14]: 52%
% control ABUTH [3, 15]: 42%
% control ABUTH [3, 16]: 65%
% control ABUTH [3, 17]: 58%
% control ABUTH [3, 18]: 68%
% control ABUTH [3, 19]: 78%
% control ABUTH [3, 20]: 80%
% control ABUTH [3, 21]: 81%
% control ABUTH [3, 22]: 85%
% control SIDSP [4, 7]: 30%
% control SIDSP [4, 8]: 38%
% control SIDSP [4, 9]: 38%
% control SIDSP [4, 10]: 38%
% control SIDSP [4, 11]: 37%
% control SIDSP [4, 12]: 38%
% control SIDSP [4, 13]: 52%
% control SIDSP [4, 14]: 62%
% control SIDSP [4, 15]: 50%
% control SIDSP [4, 16]: 63%
% control SIDSP [4, 17]: 77%
% control SIDSP [4, 18]: 76%
% control SIDSP [4, 19]: 76%
% control SIDSP [4, 20]: 78%
% control SIDSP [4, 21]: 78%
% control SIDSP [4, 22]: 77%
% control ECHCG [5, 23]: 12%
% control ECHCG [5, 24]: 15%
% control ECHCG [5, 25]: 51%
% control ECHCG [5, 26]: 53%
% control ECHCG [5, 7]: 32%
% control ECHCG [5, 8]: 35%
% control ECHCG [5, 9]: 68%
% control ECHCG [5, 10]: 91%
% control ECHCG [5, 11]: 78%
% control ECHCG [5, 12]: 83%
% control ECHCG [5, 13]: 90%
% control ECHCG [5, 14]: 98%
% control ECHCG [5, 15]: 90%
% control ECHCG [5, 16]: 89%
% control ECHCG [5, 17]: 95%
% control ECHCG [5, 18]: 98%
% control POROC [6, 7]: 7%
% control POROC [6, 8]: 2%
% control POROC [6, 9]: 13%
% control POROC [6, 10]: 35%
% control POROC [6, 11]: 8%
% control POROC [6, 12]: 18%
% control POROC [6, 13]: 43%
% control POROC [6, 14]: 46%
% control POROC [6, 15]: 28%
% control POROC [6, 16]: 36%
% control POROC [6, 17]: 45%
% control POROC [6, 18]: 50%
% control POROC [6, 19]: 42%
% control POROC [6, 20]: 47%
% control POROC [6, 21]: 63%
% control POROC [6, 22]: 81%
